Assay results as given in patent US10168342B2, “Lipid probes and uses thereof” (THE SCRIPPS RESEARCH INSTITUTE, priority 2015, dated 2019).
Read-outs that look alike come from different tables or passages of the source.

Legend:
[1] = biological target: AEA-DA lipid probe targets in Neuro2a cells (Mus musculus, UniProt P20152)
[2] = biological target: AEA-DA lipid probe targets in Neuro2a cells (Mus musculus, UniProt Q62261)
[3] = biological target: AEA-DA lipid probe targets in Neuro2a cells (Mus musculus, UniProt Q8BG32)
[4] = biological target: T1, AEA-DA lipid probe targets in Neuro2a cells (Mus musculus, UniProt Q8BJ03); conditions: protein Cox15, Neuro2a cells
T1 sequence (Q8BJ03 1-413): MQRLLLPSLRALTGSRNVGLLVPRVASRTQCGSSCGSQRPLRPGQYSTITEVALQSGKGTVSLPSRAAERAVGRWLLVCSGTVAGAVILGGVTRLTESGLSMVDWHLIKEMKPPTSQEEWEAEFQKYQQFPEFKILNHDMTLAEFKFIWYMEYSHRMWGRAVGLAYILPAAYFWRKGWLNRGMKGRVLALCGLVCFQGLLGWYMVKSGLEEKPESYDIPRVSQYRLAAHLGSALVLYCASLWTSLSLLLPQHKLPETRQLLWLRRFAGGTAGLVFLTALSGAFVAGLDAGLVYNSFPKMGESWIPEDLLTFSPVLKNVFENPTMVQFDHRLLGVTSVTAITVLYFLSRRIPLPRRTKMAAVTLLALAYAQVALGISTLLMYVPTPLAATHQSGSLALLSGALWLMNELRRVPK

[5] = biological target: AEA-DA lipid probe targets in Neuro2a cells (Mus musculus, UniProt Q8BMS1)
[6] = biological target: T2, AEA-DA lipid probe targets in Neuro2a cells (Mus musculus, UniProt Q8C7K6)
T2 sequence (Q8C7K6 23-495): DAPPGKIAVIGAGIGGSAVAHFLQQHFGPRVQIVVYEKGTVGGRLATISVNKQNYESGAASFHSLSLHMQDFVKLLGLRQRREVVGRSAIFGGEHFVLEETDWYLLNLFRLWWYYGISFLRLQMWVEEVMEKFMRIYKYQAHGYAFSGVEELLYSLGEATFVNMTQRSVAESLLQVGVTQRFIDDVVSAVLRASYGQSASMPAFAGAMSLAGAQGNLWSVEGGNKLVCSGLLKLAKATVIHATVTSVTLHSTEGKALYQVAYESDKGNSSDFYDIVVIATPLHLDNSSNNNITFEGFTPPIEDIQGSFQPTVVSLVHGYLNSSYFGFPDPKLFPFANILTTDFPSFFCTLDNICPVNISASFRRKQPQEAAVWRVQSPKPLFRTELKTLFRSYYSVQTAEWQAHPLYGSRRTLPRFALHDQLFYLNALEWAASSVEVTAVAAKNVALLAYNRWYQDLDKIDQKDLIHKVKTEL

[7] = biological target: T3, AEA-DA lipid probe targets in Neuro2a cells (Mus musculus, UniProt Q91ZV0)
T3 sequence (Q91ZV0 23-1396): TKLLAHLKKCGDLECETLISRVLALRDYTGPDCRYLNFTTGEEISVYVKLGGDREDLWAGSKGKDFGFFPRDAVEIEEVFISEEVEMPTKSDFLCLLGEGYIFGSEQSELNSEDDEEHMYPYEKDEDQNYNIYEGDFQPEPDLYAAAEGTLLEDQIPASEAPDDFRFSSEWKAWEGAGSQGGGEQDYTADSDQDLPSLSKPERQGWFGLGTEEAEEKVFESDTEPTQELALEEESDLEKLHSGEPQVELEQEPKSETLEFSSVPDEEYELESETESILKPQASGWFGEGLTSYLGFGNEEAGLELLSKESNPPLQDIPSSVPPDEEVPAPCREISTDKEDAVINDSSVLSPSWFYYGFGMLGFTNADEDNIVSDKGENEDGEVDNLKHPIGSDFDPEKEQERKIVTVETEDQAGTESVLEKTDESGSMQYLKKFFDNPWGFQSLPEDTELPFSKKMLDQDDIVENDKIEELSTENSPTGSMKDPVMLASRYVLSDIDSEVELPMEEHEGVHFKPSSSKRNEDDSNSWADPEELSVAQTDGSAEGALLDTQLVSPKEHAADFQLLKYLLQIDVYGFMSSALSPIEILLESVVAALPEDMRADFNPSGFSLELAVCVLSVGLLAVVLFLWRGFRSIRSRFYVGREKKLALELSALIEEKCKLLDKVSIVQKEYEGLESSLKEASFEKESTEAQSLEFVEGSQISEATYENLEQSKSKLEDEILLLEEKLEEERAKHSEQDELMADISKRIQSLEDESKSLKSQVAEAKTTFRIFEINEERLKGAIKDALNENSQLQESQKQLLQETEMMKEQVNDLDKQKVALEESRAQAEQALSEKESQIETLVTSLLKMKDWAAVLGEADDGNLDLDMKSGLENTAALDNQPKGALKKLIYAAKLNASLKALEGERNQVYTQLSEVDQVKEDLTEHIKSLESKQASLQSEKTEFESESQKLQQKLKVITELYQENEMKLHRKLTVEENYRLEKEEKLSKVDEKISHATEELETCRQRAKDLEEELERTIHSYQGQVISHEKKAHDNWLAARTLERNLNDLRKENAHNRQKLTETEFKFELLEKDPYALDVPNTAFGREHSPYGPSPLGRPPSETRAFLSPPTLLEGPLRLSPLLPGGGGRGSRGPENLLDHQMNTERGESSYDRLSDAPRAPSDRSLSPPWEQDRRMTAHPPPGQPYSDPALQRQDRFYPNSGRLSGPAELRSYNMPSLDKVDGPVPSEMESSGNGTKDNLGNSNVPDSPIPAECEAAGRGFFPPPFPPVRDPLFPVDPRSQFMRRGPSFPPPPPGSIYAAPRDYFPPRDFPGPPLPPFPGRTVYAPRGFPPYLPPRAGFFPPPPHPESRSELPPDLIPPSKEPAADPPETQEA

[8] = biological target: T4, AEA-DA lipid probe targets in Neuro2a cells (Mus musculus, UniProt Q505D7); conditions: for SILAC ratio, OPA3 (Q505D7): Neuro2a cells, AEA-DA probe
T4 sequence (Q505D7 1-179): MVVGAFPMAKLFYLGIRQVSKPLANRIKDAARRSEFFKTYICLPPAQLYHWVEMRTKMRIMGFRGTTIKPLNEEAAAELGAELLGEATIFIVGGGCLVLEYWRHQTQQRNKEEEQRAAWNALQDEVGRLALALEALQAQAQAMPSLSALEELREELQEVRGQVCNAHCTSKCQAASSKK

Chain of AEA-DA lipid probe targets in Neuro2a cells (Mus musculus, UniProt P20152) (P20152 whole entry): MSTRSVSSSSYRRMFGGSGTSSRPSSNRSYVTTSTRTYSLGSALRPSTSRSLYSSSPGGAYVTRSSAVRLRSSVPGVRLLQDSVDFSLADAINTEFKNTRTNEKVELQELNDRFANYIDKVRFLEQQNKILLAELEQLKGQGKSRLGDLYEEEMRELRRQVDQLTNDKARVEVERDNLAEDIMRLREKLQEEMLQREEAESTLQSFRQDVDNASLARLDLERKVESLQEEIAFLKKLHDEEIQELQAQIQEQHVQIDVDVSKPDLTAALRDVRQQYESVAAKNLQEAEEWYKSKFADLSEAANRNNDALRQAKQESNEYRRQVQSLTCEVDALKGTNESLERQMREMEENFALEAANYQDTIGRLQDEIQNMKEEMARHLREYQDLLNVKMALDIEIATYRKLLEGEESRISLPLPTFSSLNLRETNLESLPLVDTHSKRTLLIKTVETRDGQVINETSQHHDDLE
Chain of AEA-DA lipid probe targets in Neuro2a cells (Mus musculus, UniProt Q8BG32) (Q8BG32 whole entry): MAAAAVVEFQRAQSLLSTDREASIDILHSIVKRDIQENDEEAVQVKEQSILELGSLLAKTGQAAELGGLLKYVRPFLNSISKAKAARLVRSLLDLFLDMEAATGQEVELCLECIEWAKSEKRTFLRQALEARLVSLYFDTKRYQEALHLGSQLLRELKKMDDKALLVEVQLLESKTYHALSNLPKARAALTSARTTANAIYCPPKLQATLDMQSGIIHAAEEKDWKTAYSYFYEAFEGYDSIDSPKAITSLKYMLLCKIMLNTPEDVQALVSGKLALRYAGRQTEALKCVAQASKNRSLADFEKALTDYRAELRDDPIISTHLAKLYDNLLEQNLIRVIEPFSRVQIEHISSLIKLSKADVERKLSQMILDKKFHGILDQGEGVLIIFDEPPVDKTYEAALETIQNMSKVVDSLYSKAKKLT
Chain of AEA-DA lipid probe targets in Neuro2a cells (Mus musculus, UniProt Q8BMS1) (Q8BMS1 37-763): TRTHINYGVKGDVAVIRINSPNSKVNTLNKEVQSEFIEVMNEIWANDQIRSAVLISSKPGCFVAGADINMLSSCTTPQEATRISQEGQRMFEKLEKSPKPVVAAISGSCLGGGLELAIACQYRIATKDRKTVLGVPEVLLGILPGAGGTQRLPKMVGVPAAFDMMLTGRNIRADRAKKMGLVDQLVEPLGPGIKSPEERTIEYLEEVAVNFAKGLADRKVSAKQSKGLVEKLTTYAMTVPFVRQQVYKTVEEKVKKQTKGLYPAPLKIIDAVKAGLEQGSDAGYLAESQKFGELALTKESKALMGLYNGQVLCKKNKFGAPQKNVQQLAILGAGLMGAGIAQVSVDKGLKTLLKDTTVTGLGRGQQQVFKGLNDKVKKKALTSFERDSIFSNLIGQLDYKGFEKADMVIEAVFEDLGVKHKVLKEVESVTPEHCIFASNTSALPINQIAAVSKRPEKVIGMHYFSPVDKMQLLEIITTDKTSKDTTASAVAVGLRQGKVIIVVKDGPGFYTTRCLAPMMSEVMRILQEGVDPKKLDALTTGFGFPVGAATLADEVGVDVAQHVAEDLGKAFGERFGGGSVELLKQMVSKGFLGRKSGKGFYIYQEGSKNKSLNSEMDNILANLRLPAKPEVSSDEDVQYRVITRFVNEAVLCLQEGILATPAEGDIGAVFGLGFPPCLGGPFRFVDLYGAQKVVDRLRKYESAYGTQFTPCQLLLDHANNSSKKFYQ
Chain of AEA-DA lipid probe targets in Neuro2a cells (Mus musculus, UniProt Q62261) (Q62261 whole entry): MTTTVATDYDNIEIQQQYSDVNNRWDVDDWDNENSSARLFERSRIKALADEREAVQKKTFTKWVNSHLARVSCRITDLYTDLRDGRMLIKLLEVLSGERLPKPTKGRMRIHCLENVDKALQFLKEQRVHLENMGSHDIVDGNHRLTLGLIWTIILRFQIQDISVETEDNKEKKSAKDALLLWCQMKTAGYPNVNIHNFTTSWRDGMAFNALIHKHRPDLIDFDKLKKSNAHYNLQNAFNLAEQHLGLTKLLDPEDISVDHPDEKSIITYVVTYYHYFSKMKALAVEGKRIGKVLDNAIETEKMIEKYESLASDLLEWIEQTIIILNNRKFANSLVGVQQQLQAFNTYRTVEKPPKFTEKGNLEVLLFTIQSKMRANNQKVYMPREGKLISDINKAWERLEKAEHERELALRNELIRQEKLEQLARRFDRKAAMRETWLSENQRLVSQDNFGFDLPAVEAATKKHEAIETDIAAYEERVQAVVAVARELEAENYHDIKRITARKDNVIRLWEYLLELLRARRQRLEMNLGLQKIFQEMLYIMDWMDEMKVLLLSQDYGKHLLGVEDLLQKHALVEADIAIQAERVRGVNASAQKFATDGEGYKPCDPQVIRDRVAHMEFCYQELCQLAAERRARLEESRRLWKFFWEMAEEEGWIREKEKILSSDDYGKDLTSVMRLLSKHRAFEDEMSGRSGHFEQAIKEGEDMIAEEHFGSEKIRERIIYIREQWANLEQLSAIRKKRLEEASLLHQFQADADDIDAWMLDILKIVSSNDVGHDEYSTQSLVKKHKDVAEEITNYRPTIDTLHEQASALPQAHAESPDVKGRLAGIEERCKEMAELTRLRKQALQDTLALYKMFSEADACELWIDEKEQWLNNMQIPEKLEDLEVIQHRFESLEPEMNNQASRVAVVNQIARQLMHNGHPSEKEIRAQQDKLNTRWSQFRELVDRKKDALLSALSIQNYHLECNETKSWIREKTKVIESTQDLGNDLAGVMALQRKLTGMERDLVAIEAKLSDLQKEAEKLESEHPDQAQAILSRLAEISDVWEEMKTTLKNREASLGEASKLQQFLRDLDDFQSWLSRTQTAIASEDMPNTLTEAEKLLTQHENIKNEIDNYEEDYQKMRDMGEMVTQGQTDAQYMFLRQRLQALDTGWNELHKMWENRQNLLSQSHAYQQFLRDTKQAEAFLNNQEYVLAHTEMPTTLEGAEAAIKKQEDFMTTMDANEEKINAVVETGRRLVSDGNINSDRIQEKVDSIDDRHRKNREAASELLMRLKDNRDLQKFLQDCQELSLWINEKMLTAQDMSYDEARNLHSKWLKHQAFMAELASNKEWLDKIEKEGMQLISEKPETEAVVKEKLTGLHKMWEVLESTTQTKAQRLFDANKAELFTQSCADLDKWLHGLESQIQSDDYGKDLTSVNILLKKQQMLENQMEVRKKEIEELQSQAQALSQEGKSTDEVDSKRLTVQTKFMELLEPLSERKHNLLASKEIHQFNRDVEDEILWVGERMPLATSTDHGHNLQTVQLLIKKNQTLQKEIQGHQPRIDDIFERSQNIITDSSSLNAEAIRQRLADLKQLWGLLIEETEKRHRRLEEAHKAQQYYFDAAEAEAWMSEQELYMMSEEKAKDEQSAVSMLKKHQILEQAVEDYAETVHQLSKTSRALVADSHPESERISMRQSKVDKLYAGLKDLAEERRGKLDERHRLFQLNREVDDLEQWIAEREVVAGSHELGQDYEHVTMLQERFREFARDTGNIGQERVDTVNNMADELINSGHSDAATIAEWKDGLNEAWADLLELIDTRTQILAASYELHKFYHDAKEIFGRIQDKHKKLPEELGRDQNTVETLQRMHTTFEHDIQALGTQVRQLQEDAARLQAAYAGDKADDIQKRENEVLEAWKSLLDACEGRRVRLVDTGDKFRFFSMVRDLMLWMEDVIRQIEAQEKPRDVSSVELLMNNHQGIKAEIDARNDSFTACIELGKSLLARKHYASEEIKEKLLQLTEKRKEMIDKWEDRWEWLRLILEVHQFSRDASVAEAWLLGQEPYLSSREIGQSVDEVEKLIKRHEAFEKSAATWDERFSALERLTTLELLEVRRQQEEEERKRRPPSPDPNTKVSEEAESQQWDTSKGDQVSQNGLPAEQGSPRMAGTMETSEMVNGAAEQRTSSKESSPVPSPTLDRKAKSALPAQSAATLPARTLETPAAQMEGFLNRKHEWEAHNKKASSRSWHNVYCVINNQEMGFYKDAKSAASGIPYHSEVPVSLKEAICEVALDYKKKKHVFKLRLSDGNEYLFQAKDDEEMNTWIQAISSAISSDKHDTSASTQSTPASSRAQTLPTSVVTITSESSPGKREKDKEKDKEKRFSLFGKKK

Row | SMILES | SILAC ratio Vim ([1]; competitor 25 μM) | SILAC ratio, OPA3 (Q505D7) ([8]; competitor 25 μM) | SILAC ratio, Opa3 ([8]; competitor 25 μM) | SILAC ratio Sptbn1 ([2]; competitor 25 μM) | SILAC ratio Psmd11 ([3]; competitor 25 μM) | SILAC ratio (AEA-DA competition) ([4]; competitor 25 μM) | SILAC ratio, Hadha ([5]; competitor 25 μM) | SILAC ratio Pcyox11 ([6]; competitor 25 μM) | SILAC ratio, Ctage5 ([7]; competitor 25 μM) | other results
1 | CCCCC/C=C\C/C=C\C/C=C\C/C=C\CCCC(=O)NCCO [AEA, anandamide, reference compound] |  |  |  |  |  |  |  |  |  | SILAC ratio Vim ([1]; competitor 200 μM): 0.9; SILAC ratio Sptbn1 ([2]; competitor 200 μM): 1.1; SILAC ratio Psmd11 ([3]; competitor 200 μM): 1.2; SILAC ratio (AEA-DA competition) ([4]; competitor 200 μM): 1.0; SILAC ratio, Hadha ([5]; competitor 200 μM): 2.3; SILAC ratio Pcyox11 ([6]; competitor 200 μM): 1.5; SILAC ratio, Ctage5 ([7]; competitor 200 μM): 2.3
2 | O=C(/C=C/c1cccnc1)NCCCCC1CCN(C(=O)c2ccccc2)CC1 [FK-866, reference compound] | 1.2 | 1.1 | 1.1 | 1.3 | 1.3 | 0.9 | 6.2 | 1.3 | 1.1 | 
3 | CN1CCN(C(=O)c2c(-c3ccccc3)c3cc([N+](=O)[O-])ccc3n2C)CC1 [KML110, (1-Methyl-5-nitro-3-phenyl-1H-indol-2-yl)(4-methylpiperazin-1-yl)methanone] | 1.2 |  | 1.6 | 1.2 | 1.3 | 1.1 | 2.0 | 2.0 | 1.4 | 
4 | CN1CCN(C(=O)c2[nH]c3ccc([N+](=O)[O-])cc3c2-c2ccccc2)CC1 [MJN228, (4-Methylpiperazin-1-yl)(5-nitro-3-phenyl-1H-indol-2-yl)methanone] | 1.2 | 1.4 | 1.4 | 1.2 | 1.3 | 1.0 | 1.7 | 1.8 | 1.3 | SILAC ratio Vim ([1]; competitor 10 μM): 1.2; SILAC ratio Vim ([1]; competitor 50 μM): 0.9; SILAC ratio Vim ([1]; competitor 100 μM): 1.0; SILAC ratio, Opa3 ([8]; competitor 10 μM): 1.4; SILAC ratio, Opa3 ([8]; competitor 50 μM): 1.5; SILAC ratio, Opa3 ([8]; competitor 100 μM): 1.9; SILAC ratio Sptbn1 ([2]; competitor 10 μM): 1.0; SILAC ratio Sptbn1 ([2]; competitor 100 μM): 1.3; SILAC ratio (AEA-DA competition) ([4]; competitor 10 μM): 0.8; SILAC ratio (AEA-DA competition) ([4]; competitor 50 μM): 0.7; SILAC ratio (AEA-DA competition) ([4]; competitor 100 μM): 0.6; SILAC ratio, Hadha ([5]; competitor 10 μM): 1.4; SILAC ratio, Hadha ([5]; competitor 50 μM): 2.0; SILAC ratio, Hadha ([5]; competitor 100 μM): 2.9; SILAC ratio Pcyox11 ([6]; competitor 10 μM): 1.2; SILAC ratio Pcyox11 ([6]; competitor 50 μM): 1.7; SILAC ratio Pcyox11 ([6]; competitor 100 μM): 2.5; SILAC ratio, Ctage5 ([7]; competitor 10 μM): 1.1; SILAC ratio, Ctage5 ([7]; competitor 50 μM): 1.5; SILAC ratio, Ctage5 ([7]; competitor 100 μM): 1.7
5 | C=CCN(C)CCCCCCOc1ccc(C(=O)c2ccc(Br)cc2)c(F)c1 [Ro 48-8071, reference compound] | 0.8 | 1.4 | 1.4 | 1.0 | 0.9 | 0.8 | 1.0 | 1.0 | 1.0 | 
